Series [1] relates to T1, AhR.
T1 construct: endogenous in cells; host or cells: AZ-AHR (HepG2 with stably integrated AhR-responsive luciferase reporter; gift of Z. Dvorak)
Briefly: AhR reporter gene assay in AZ-AHR cells. Format: cell-based, human. To be noted: 24 h, up to 10 µM. On the procedure:
AZ-AHR cells. The human hepatoma cell line HepG2 stably transfected with a construct containing several AhR binding sites upstream of luciferase reporter gene was used to investigate whether venetoclax can activate AhR. Cells were kindly provided by Z. Dvorak (Palacky University, Olomouc, Czech Republic).
To test whether the induction of CYP1A1 or UGTs can be attributed to AhR activation by venetoclax, an AhR reporter gene assay was applied. 60,000 AZ-AhR cells were seeded into each well of 96-well plates with clear bottom and clear lid for luminometry. After incubation for 24 h, cells were treated in triplicate with venetoclax (0.1–10 µM) or vehicle control (0.2% DMSO) for a further 24 h. The assay was performed with the Steady-Glo™ Luciferase Assay System according to the manufacturer’s instructions. Drug-induced increases of AhR receptor activity were normalized to activity of non-drug treated controls, which was set to 1 (= 100%). The experiment was performed in triplicate.

Series [2] concerns ABCB1. The series can be described thus: Induction assay, ABCB1 mRNA by real-time RT-PCR in LS180 cells. It counts as in vitro ADME, human. To be noted: four days, at higher concentrations. On the procedure: LS180 cells. The human colon adenocarcinoma cell line LS180 (available at ATCC, Manassas, VA, USA) is one of the standard models for investigating pregnane X receptor (PXR) and aryl hydrocarbon receptor (AhR) mediated induction and was thus used for induction experiments. Cells were cultured under standard cell culture conditions with DMEM supplemented with 10% FCS, 2 mM of glutamine, 100 U/mL of penicillin, 100 µg/mL of streptomycin sulfate, and 0.1 mM of nonessential amino acids.
For the induction experiments, LS180 cells were seeded in 75 cm^2 culturing flasks and incubated for three days. […]
RNA was isolated using the GenElute™ Mammalian Total RNA Miniprep Kit, and cDNA was synthesized with the RevertAid™ H Minus First Strand cDNA Synthesis Kit according to the manufacturer's instructions. mRNA expression was quantified by real-time RT-PCR with the LightCycler® 480 (Roche Applied Science, Mannheim, Germany) as described previously. […] Data were evaluated via calibrator-normalized relative quantification with efficiency correction using the LightCycler® 480 software version 1.5 (Roche Applied Science, Mannheim, Germany). […] The following target genes were quantified: CYP1A1, CYP1A2, CYP3A4, ABCB1, ABCC2, ABCG2, SLCO1B1 (coding for OATP1B1), UDP-glucuronosyltransferase 1A3 (UGT1A3), and UGT1A9.

The target in series [3] is T2, OATP1B1 (Homo sapiens, UniProt Q9Y6L6).
T2 construct: expressed in transfected cells; host or cells: HEK293 (HEK-OATP1B1; gift of D. Keppler)
T2 sequence (Q9Y6L6 whole entry): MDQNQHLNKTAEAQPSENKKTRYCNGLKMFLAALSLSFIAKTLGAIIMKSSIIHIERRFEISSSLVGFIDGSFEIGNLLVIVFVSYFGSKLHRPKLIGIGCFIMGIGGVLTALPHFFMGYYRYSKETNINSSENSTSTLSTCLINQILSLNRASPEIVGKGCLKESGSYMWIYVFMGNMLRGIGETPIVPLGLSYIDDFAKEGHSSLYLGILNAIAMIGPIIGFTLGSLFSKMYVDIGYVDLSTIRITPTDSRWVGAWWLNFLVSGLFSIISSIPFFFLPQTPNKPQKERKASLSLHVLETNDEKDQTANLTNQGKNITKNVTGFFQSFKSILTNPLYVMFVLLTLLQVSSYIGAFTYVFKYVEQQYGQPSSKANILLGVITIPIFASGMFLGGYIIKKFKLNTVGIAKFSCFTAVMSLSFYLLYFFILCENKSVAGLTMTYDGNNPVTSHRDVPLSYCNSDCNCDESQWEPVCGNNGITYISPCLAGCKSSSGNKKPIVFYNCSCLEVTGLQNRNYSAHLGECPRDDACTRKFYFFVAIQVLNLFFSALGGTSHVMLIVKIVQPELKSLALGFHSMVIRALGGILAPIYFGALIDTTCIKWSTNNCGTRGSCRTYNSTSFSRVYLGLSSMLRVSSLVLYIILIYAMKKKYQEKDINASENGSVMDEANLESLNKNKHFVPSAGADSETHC
The series can be described thus: OATP1B1 inhibition, 8-FcA uptake in HEK-OATP1B1 cells. It counts as in vitro ADME. The method, then:
HEK293 cells. For assessing inhibition of OATP1B1 and OATP1B3, the human embryonic kidney cell line HEK293 stably transfected with OATP1B1 (HEK-OATP1B1), OATP1B3 (HEK-OATP1B3), or the empty control vector (HEK293-VCG418) were used. Cells were cultured under standard cell culture conditions with DMEM supplemented with 10% FCS, 2 mM of glutamine, 100 U/mL of penicillin, 100 µg/mL of streptomycin sulfate, and 800 µg/mL of G418 to maintain over-expression. Cells were kindly provided by D. Keppler (German Cancer Research Centre, Heidelberg, Germany).
Inhibition of OATP1B1 and OATP1B3 was analyzed in HEK-OATP1B1 and HEK-OATP1B3 cells by quantifying the uptake of the fluorescent substrate 8-FcA by flow cytometry as described previously. HEK293-VCG418 cells were used as a control. Inhibition of OATPs leads to a reduced uptake of 8-FcA into the cells. Each experiment was performed at least in triplicate, and venetoclax was tested from 0.05 up to 100 µM.

The target of series [4] is T3, CYP3A4 (Homo sapiens, UniProt P08684).
T3 construct: purchased Becton Dickinson Biosciences (Heidelberg, Germany)
T3 sequence (P08684 whole entry): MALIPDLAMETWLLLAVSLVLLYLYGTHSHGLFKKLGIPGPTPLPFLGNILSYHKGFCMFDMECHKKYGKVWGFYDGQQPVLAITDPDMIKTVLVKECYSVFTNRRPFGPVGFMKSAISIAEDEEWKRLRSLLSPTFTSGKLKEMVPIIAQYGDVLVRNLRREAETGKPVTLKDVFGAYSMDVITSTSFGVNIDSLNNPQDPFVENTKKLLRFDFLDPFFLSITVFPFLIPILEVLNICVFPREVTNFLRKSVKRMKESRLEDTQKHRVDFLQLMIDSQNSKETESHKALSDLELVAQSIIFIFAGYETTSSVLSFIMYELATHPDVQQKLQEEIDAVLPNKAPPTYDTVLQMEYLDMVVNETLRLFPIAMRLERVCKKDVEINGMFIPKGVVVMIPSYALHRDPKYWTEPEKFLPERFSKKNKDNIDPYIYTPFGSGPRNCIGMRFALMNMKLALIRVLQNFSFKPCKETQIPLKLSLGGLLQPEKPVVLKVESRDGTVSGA
Briefly: CYP3A4 inhibition, CYP3A4/BFC High Throughput Inhibitor Screening Kit. It counts as in vitro ADME. To be noted: recombinant CYP, fluorogenic substrate. On the procedure:
Inhibition studies for CYP2B6, CYP2D6, CYP2C19 and CYP3A4 were performed with the CYP2B6/EFC, CYP2D6/AMMC, the CYP2C19/CEC, and the CYP3A4/BFC High Throughput Inhibitor Screening Kit according to the manufacturer’s instructions. The kits contain the respective recombinant CYP and fluorogenic substrates, which are blocked dyes emitting a fluorescence signal when cleaved by the enzyme. For testing CYP1A2 inhibition, the P450-Glo CYP1A2 Screening System was used according to the manufacturer’s instructions. The kit contains the luminogenic CYP1A2 substrate luciferin-ME, which is converted by CYP1A2 into luciferin-generating light when incubated with the luciferin detection reagent of the kit. Eight concentrations of venetoclax in duplicates (0.009–20 µM) were tested in the fluorescence assays, and eight concentrations in triplicate (0.05–100 µM) were tested for the luminogenic assay. Each experiment was conducted in triplicate.

The test system of series [5] is cell lines used for P-gp, BCRP, and OATP inhibition assays. The series can be described thus: Cytotoxicity assay (Cytotoxicity Detection Kit). It counts as cell-based. To be noted: up to 100 µM, all cell lines used. The method, then: Prior to P-gp, BCRP, and OATP inhibition assays, venetoclax was tested in the respective cell lines for cytotoxic effects with the Cytotoxicity Detection Kit (Roche Applied Science, Mannheim, Germany). Venetoclax was not cytotoxic up to 100 µM in all cell lines used.

Molecules are shown by their SMILES.

For the compound `CC1(C)CCC(CN2CCN(c3ccc(C(=O)NS(=O)(=O)c4ccc(NCC5CCOCC5)c([N+](=O)[O-])c4)c(Oc4cnc5[nH]ccc5c4)c3)CC2)=C(c2ccc(Cl)cc2)C1` [Venetoclax], the “luciferase activity in the AhR reporter gene assay” value in series [1] is listed as “did not increase”. Moreover, the “mRNA expression of ABCB1” value in series [2] was “suppressed”. Moreover, the IC50 is 47.8 ± 10.1 µM in series [3] and 7.2 ± 3.2 µM in series [4]. Also, the cytotoxic effects entry in series [5] is reported as “not cytotoxic”.

The IC50 is the concentration needed to halve the response being measured.
